Measurements taken from ChEMBL document CHEMBL5584239, “Discovery of novel quinoline scaffold selective estrogen receptor degraders (SERDs) for treatment of ER positive breast cancer with enhanced antiproliferative bioactivity through immunogenic cell death (ICD) effects” (Eur J Med Chem, 2024).
Active and inactive are the calls of the source. No cut-off for these calls is given here.

What was measured:
Ishikawa = experiment: Antiproliferative activity against human Ishikawa cells at 20 uM incubated for 3 days by MTT assay relative to control; assay type: functional; details: 72 h, time 3 day
MCF7 [1] = experiment: Antiproliferative activity against human MCF7 cells incubated for 5 days by MTT assay; assay type: functional, cell-based; details: MCF7, 120 h
MCF7 [2] = experiment: Induction of ROS production in human MCF7 cells incubated for 3 to 24 hrs by immunofluorescence analysis; assay type: functional, cell-based; details: time 3-24 hrs
MCF7 [3] = experiment: Induction of cell cycle arrest at G0/G1 phase in human MCF7 cells at 10 uM incubated for 24 hrs by PI/RNase staining based flow cytometry (reference value: 53.5 +/- 1.96 %); assay type: functional

Row | Structure (SMILES) | IC50 (MCF7 [1]) [nM] | inhibition at 20 µM (Ishikawa) [%] | Activity (MCF7 [2]) | Activity (MCF7 [3]) [%]
1 | CCc1ccccc1C(=O)c1cnc2cc(O)ccc2c1Oc1c(C)cc(/C=C/C(=O)O)cc1C |  | 11.5 |  | 
2 | O=C(O)/C=C/c1ccc(Oc2c(C(=O)c3ccc(OC(F)(F)F)cc3)cnc3cc(O)ccc23)cc1 | 1360 | 20.4 |  | 
3 | O=C(O)/C=C/c1ccc(Oc2c(C(=O)c3ccc(C(F)(F)F)cc3)cnc3cc(O)ccc23)cc1 | 690 | -4.35 |  | 
4 | O=C(O)/C=C/c1ccc(Oc2c(C(=O)c3ccccc3)cnc3cc(O)ccc23)cc1 | 1670 | 11.8 |  | 
5 | CC(C)c1ccccc1C(=O)c1cnc2cc(O)ccc2c1Oc1ccc(/C=C/C(=O)O)cc1 | 580 | 23.8 |  | 
6 | CCc1ccccc1C(=O)c1cnc2cc(O)ccc2c1Oc1ccc(/C=C/C(=O)O)cc1F | 670 | 4.11 |  | 
7 | Cc1cc(Cl)ccc1C(=O)c1cnc2cc(O)ccc2c1Oc1ccc(/C=C/C(=O)O)cc1 | 370 | 24.9 |  | 
8 | O=C(O)/C=C/c1ccc(Oc2c(C(=O)c3cccc(F)c3)cnc3cc(O)ccc23)cc1 | 2420 | 26.4 |  | 

More lines, main results first:

Row | IC50 (MCF7 [1]) [nM] | Structure (SMILES) | inhibition at 20 µM (Ishikawa) [%] | Activity (MCF7 [2]) | Activity (MCF7 [3]) [%]
9 | 1560 | CC/C(=C(\c1ccccc1)c1ccc(OCCN(C)C)cc1)c1ccccc1 [TAMOXIFEN] | 86.5 | inactive | 67.6
10 | 1470 | O=C(O)/C=C/c1ccc(Oc2c(C(=O)c3ccc4occc4c3)cnc3cc(O)ccc23)cc1 | 13.3 |  | 
11 | 3090 | COc1ccc(C(=O)c2cnc3cc(O)ccc3c2Oc2ccc(/C=C/C(=O)O)cc2)cc1 | 61.2 |  | 
12 | 410 | Cc1cc(F)cc(C)c1C(=O)c1cnc2cc(O)ccc2c1Oc1ccc(/C=C/C(=O)O)cc1 | 35.8 |  | 
